Values quoted from earlier work as cited in patent publication US4122157A, “Nitrofurantoin sustained release tablet” (Richardson-Merrell Inc., priority 1977, dated 1978).

Conditions: background statement

Compound: O=C1CN(N=Cc2ccc([N+](=O)[O-])o2)C(=O)N1 [Nitrofurantoin, 1-[(5-nitrofurfurylidene)amino]hydantoin]
- tolerability in humans: remarkably well tolerated in humans
- most frequent adverse reactions (humans): anorexia, nausea and emesis
